According to patent US6569877B2, “Therapeutic and prophylactic agents for neoplasms” (Sankyo Company, Limited, priority 1999, dated 2003):

Experiments:
[1] = tested on: Human large intestine cancer cells COL-2-JCK; assay: Antitumor effects upon human large intestine cancer cells COL-2-JCK (colony formation, crystal violet staining); format: cell-based; details: 300 cells/well, 10 days incubation, control (0) 3311
Protocol: Human cancer cells from the large intestine, COL-2-JCK (moderately differentiated adenocarcinoma), purchased from the Central Institute for Experimental Animals, were employed in the Test Example of the present invention as the solid tumor strain. The proliferated CLO-2-JCK cells were cultured and used for the experiments in our laboratory. In order to subculture the strain of the cancer cells and to test compounds in the experiments, the cancer cells were cultured with D-MEM/F-12 culture medium containing bovine fetal serum (manufactured by GIBCO Co.).
The test was carried out as follows: COL-2-JCK cells growed confluently on a petri dish for culture of cells (inner diameter 100 mm) were removed from the petri dish by using EDTA and 0.05% trypsin solution, and diluted to 100 cells/ml cell density with the culture medium. 3 ml of the diluted cell solution was then placed into each well of a 6-well plate (300 cells/well). At the same time, the test compound dissolved in DMSO solution was added so as to be 1, 10, 100 nM, 1 and 10 μM of the final concentrations to each well. The final concentration of the DMSO solution was adjusted to 0.1%. DMSO solution (0.1%) alone was placed in wells of the control group. After addition of the test compound, the cells were incubated in the presence of 5% CO2 gas for 10 days at 37° C. After incubation was terminated, each well containing the cells was washed once with Dulbecco phosphate buffer saline (bivalent ion minus). Then 1 ml of 10% neutral formalin solution containing 0.02% crystal violet was added to the well and left for 5 minutes in order to stain the cells. After the dye was fixed, the cells were washed with water and air-dried. The total colony area (mm^2) of dye-fixed tumor cells was calculated by using an image analyzer of PCA-11 (manufactured by SystemSience Co.).

[2] = tested on: Human H69 lung cancer cells; assay: Antitumor effect on human H69 lung cancer cells (subcutaneous xenograft in nude mice); format: in vivo; details: H69 in BALB/c nude mice; 10 mg/kg orally once a day, 24 times; tumor volume on the 39th day after inoculation
Source text: (§1) A piece (5 mm×5 mm) of human lung affected by H69 strain of lung cancer was subcutaneously inoculated in a group of 10 BALB/c nude mice (female, 6 weeks old). The test compounds were suspended in 5% emulsified saline containing 2.5% dimethylacetamide. They were orally administered once a day for 24 times in total, i.e., from the first day after the inoculation to the 4th day, from the 7th to the 11th day, from the 14th to the 18th day and from the 21st to the 25th day and from the 28th to the 32nd day after inoculation.
The short diameter (mm) and the long diameter (mm) of the tumor were measured with an electronic digital caliper square on the 39th day after inoculation. The efficacy of the test compound was evaluated by calculation of the inhibitory growth rate of the tumor (GI %) according to the following equation: […]
A: average tumor volume on the 39th day after inoculation in the group treated with the test compound (*)
B: an average tumor volume on the 39th day after inoculation in the non-treated group (*)
*: The tumor volume indicates ½×(long diameter of the tumor)×(short diameter of the tumor)^2.

[3] = tested on: Human MKN-74 stomach cancer cells; assay: Antitumor effects on human MKN-74 stomach cancer cells (subcutaneous xenograft in nude mice); format: in vivo
Source text: as §1, with “human stomach” for “human lung”, “by MKN-74” for “by H69”, “of stomach” for “of lung”, “after” for “after the”, “18th day,” for “18th day and”, “after the” for “after”
The short diameter (mm) and the long diameter (mm) of the tumor were measured with an electronic digital caliper square on the 35th day after inoculation. The efficacy of the test compound was evaluated by calculation of the inhibitory growth rate of the tumor (GI %) in a similar to those described above in Test Example 2.

For `COc1ccc2nc(COc3ccc(CC4SC(=O)NC4=O)cc3)n(C)c2c1.Cl` (centres unmarked) [Example 1, 5-[4-(6-Methoxy-1-methyl-1H-benzimidazol-2-ylmethoxy)benzyl]thiazolidine-2,4-dione hydrochloride], the “Total colony area (mm^2) of tumor cells” value ([1]; final concentration of the test compound 1 nM) was 2795 mm^2, the “Total colony area (mm^2) of tumor cells” value ([1]; final concentration of the test compound 10 nM) was 2018 mm^2 and the “Total colony area (mm^2) of tumor cells” value ([1]; final concentration of the test compound 100 nM) was 1352 mm^2. For the same molecule, the “Total colony area (mm^2) of tumor cells” value ([1]; final concentration of the test compound 1 μM) was 933 mm^2, the “Total colony area (mm^2) of tumor cells” value ([1]; final concentration of the test compound 10 μM) was 768 mm^2 and the “GI (%) inhibitory growth rate of the tumor” value [2] was 57%. The “GI (%) inhibitory growth rate of the tumor” value ([3]; MKN-74 in BALB/c nude mice, 10 mg/kg orally once a day, 24 times, tumor volume on the 35th day after inoculation) was 76% and the “suppression of proliferation of human stomach cancer cells (in words)” value ([3]; as shown by Test Example 3) was “suppressed the proliferation of human stomach cancer cells to a remarkable extent”.
